Where “and” joins values, the source holds several entries; their conditions need not be identical. Equal entries are not always repeated.
Assays:
[1] = system: ob/ob mice; experiment: ob/ob mice: liver Oil Red O staining; type: in vivo, mouse; conditions: 8 weeks
Method: Groups of mice were either untreated (group 1) or treated for 8 weeks with vehicle (group 2), or with Compound #37 at 5 mg/kg (group 3), 10 mg/kg (group 4), or 20 mg/kg (group 5). Treatment was daily by oral gavage in vehicle (20% HPβCD). Values are presented as mean±standard error of the mean (sem). A t test was performed to compare the untreated group and the vehicle group. Then Compound #37-treated groups were compared to the vehicle-treated group with a 1-way ANOVA+Dunnett's post-test. […] For each test, a p<0.05 was considered significant. Of note, animal #39, group 1 was excluded from the statistical analysis, due to low values for all parameters measured. Some other values were considered as out-liners and excluded from the statistical analysis when the value was far below the mean minus 2 SD. Excluded values are marked with an asterisk in Tables 21-23.

[2] = system: diet-induced NASH obese insulin resistant mice; experiment: Diet-induced NASH (DIN) obese insulin-resistant mouse model: plasma ALT and AST; type: in vivo; conditions: for ALAT area under the curve / ASAT area under the curve / ALAT, days of treatment 0 / ASAT, days of treatment 0 / ALAT, days of treatment 14 / ASAT, days of treatment 14 / ALAT, days of treatment 28 / ASAT, days of treatment 28 / ALAT, days of treatment 42 / ASAT, days of treatment 42 / ALAT, days of treatment 56 / ASAT, days of treatment 56 / ALAT, days of treatment 70 / ASAT, days of treatment 70: plasma; for ALAT area under the curve / ASAT area under the curve: 70-day treatment; for ALAT area under the curve / ASAT area under the curve / ALAT, days of treatment 0 / ASAT, days of treatment 0: 20 mg/kg; for ALAT, days of treatment 0 / ASAT, days of treatment 0: day 0 (baseline); for ALAT, days of treatment 14 / ASAT, days of treatment 14: day 14, 20 mg/kg; for ALAT, days of treatment 28 / ASAT, days of treatment 28: day 28, 20 mg/kg; for ALAT, days of treatment 42 / ASAT, days of treatment 42: day 42, 20 mg/kg; for ALAT, days of treatment 56 / ASAT, days of treatment 56: day 56, 20 mg/kg; for ALAT, days of treatment 70 / ASAT, days of treatment 70: day 70, 20 mg/kg
Method: (§1) Male C57Bl/6J mice (8 weeks old) were housed in enriched ventilated cages (31×12.5×12.7 cm) throughout the experimental phase. Animals' cages litters were changed at least once a week. Animal were housed 5 per cage on inverted 12-hour light cycle (at 09:00 am lights off), 22±2° C. and 55±10% relative humidity. The acclimation period was 20 days. During the acclimation period, all mice were fed a standard diet (RM1 (E) 801492, SDS) and tap water ad libitum. After the acclimation period, mice were fed with the DIN diet (60% fat, cholesterol enriched) and fructose-enriched tap water ad libitum until the end of the experiment.
(§2) At 6 weeks of diet, mice were 4-hour fasted (09:00 am to 1:00 pm) and blood (150 μl/EDTA) was collected at 01:00 pm by retro-orbital bleeding under isoflurane anesthesia. Mice were then allocated in 2 homogenous groups (n=12/group) according to their plasma levels of ALT (average levels: 685U/L), AST (average levels: 627U/L) and HOMA-IR index (average value: 4.7), into 2 homogenous groups (see values at day 0 in Tables 15A and 15B ALT/AST and Tables 16A and 16B for HOMA-IR). Mice were then treated once daily by oral gavage with vehicle (Group 1) or Compound #37 at 20 mg/kg (Group 2) for 70 days.
To investigate whether Compound #37 improves pre-existing steatosis/NASH pathology, a study was conducted using a 16-week diet-induced NASH mouse model. In this model, mice develop steatosis that progresses with inflammation and fibrosis that mimic many of the observed pathologies in human nonalcoholic fatty liver disease (NAFLD) and NASH (Hebbard & George, 2010). For 6 weeks, mice were fed a high-fat, high-cholesterol diet and provided drinking water containing fructose to induce liver pathology (Charlton et al, 2011). After 6 weeks, the mice were divided into 2 groups with similar mean aspartate aminotransferase (AST) and alanine aminotransferase (ALT) values (n=12 mice), although it should be noted that AST and ALT concentrations within both groups were higher and with greater variability than anticipated (e.g., mean ALT 677 U/L [SD, 401 U/L] in the vehicle control group and 693 U/L [SD, 365 U/L] in the Compound #37 group). After the animals were divided into 2 groups, the diet was continued for 10 additional weeks during which time 1 group received vehicle and the other was treated with 20 mg/kg/day Compound #37.

[3] = system: SREBP1C; experiment: DIN mouse model: hepatic SREBP1C gene expression; type: in vivo; set-up: key to 2^DDct: expression relative to vehicle group, normalized to 18S; conditions: 20 mg/kg group; for 18S: Gene Expression: SREBP1C table, 18S reference; for 2^DDct / DDct / Dct / SREBP1C: Gene Expression: SREBP1C
Method: (§3) Gene expression analysis. Hepatic expression levels of genes involved in lipid metabolism (FAS, SREBP1, ACC1, SCD1), cholesterol metabolism (HMG-CoAR, LDLR), SREBP proteolysis (SCAP, INSIG1), ER stress (PERK), oxidative stress (NRF2), inflammation (MCP-1), and fibrosis (collagen 1α1) were quantified by RTqPCR. Expression level was normalized to 18S gene expression and relative expression to vehicle group was calculated with the […] method.
as §1, §2
(§4) Hepatic expression levels of genes involved in lipid (FAS, SREBP1, ACC1, SCD1), cholesterol metabolism (HMG-CoAR, LDLR), in SREBP proteolysis (SCAP, INSIG1), in ER stress (PERK), oxidative stress (NRF2), and inflammation (MCP-1) were not changed. However, expression of collagen 1α1, involved in liver fibrosis, was reduced by 66% in mice treated with Compound #37 (p<0.05 vs. vehicle).

[4] = system: ACC1; experiment: DIN mouse model: hepatic ACC1 gene expression; type: in vivo; set-up: key to 2^DDct: expression relative to vehicle group, normalized to 18S; conditions: for 2^DDct / ACC1 / DDct / Dct: Gene Expression: ACC1, 20 mg/kg group; for 18S: Gene Expression: ACC1 table, 18S reference, 20 mg/kg group
Method: as §3, §1, §2, §4

CC(C)Cc1cc(-c2nc(-c3ccc(NS(=O)(=O)C(F)(F)F)cc3Cl)cs2)ccn1 [Compound 37, N-(3-chloro-4-(2-(2-isobutylpyridin-4-yl)thiazol-4-yl)phenyl)-1,1,1-trifluoromethanesulfonamide]
liver oil-red-O quantification ([1]; 5 mg/kg daily oral gavage, group mean): 6.7% | liver oil-red-O quantification ([1]; 5 mg/kg daily oral gavage, individual animal values, 5 mg/kg): 0.67% and 2.91% and 8.82% and 9.22% and 4.41% and 6.15% and 8.06% and 8.93% and 8.85% and 9.33% | liver oil-red-O quantification ([1]; 10 mg/kg daily oral gavage, group mean): 13.23% | liver oil-red-O quantification ([1]; 10 mg/kg daily oral gavage, individual animal values, 10 mg/kg): 19.18% and 18.46% and 13.25% and 3.65% and 8.46% and 8.67% and 16.07% and 17.12% and 16.00% and 11.43% | liver oil-red-O quantification ([1]; 20 mg/kg daily oral gavage, group mean): 8.5% | liver oil-red-O quantification ([1]; 20 mg/kg daily oral gavage, individual animal values, 20 mg/kg): 13.45% and 0.42% and 15.53% and 9.89% and 4.95% and 8.17% and 4.74% and 7.06% and 15.71% and 5.38% | hepatotoxicity (transaminase concentrations) ([2]; 20 mg/kg/day, 10 weeks): No evidence of hepatotoxicity | ALAT area under the curve ([2]; group mean, n 11): 12252 U/L · day | ASAT area under the curve ([2]; group mean, n 11): 10763 U/L · day | ALAT area under the curve ([2]; individual animals): 18578 U/L · day and 17206 U/L · day and 11865 U/L · day and 9163 U/L · day and 5418 U/L · day and 9331 U/L · day and 17759 U/L · day and 11949 U/L · day and 16954 U/L · day and 8862 U/L · day and 7686 U/L · day | ASAT area under the curve ([2]; individual animals): 18662 U/L · day and 15001 U/L · day and 8456 U/L · day and 8141 U/L · day and 5607 U/L · day and 6573 U/L · day and 11550 U/L · day and 10388 U/L · day and 13167 U/L · day and 11690 U/L · day and 9163 U/L · day | ALAT, days of treatment 0 ([2]; group mean, n 12): 693 U/L | ASAT, days of treatment 0 ([2]; group mean, n 12): 615 U/L | ALAT, days of treatment 0 ([2]; individual animals): 1520 U/L and 698 U/L and 955 U/L and 551 U/L and 226 U/L and 365 U/L and 625 U/L and 563 U/L and 830 U/L and 662 U/L and 260 U/L and 1065 U/L | ASAT, days of treatment 0 ([2]; individual animals): 1440 U/L and 875 U/L and 584 U/L and 435 U/L and 217 U/L and 269 U/L and 464 U/L and 500 U/L and 725 U/L and 730 U/L and 283 U/L and 860 U/L | ALAT, days of treatment 14 ([2]; group mean, n 12): 255 U/L | ASAT, days of treatment 14 ([2]; group mean, n 12): 249 U/L | ALAT, days of treatment 14 ([2]; individual animals): 250 U/L and 252 U/L (2×) and 218 U/L and 200 U/L and 92 U/L and 198 U/L and 256 U/L and 410 U/L and 690 U/L and 134 U/L and 106 U/L | ASAT, days of treatment 14 ([2]; individual animals): 296 U/L and 268 U/L and 206 U/L and 228 U/L and 124 U/L and 150 U/L and 190 U/L and 288 U/L and 440 U/L and 248 U/L and 428 U/L and 126 U/L | ALAT, days of treatment 28 ([2]; group mean, n 12): 146 U/L | ASAT, days of treatment 28 ([2]; group mean, n 12): 146 U/L | ALAT, days of treatment 28 ([2]; individual animals): 176 U/L and 118 U/L and 96 U/L and 68 U/L and 58 U/L and 316 U/L and 226 U/L and 154 U/L and 160 U/L and 208 U/L and 38 U/L and 136 U/L | ASAT, days of treatment 28 ([2]; individual animals): 238 U/L and 98 U/L and 84 U/L and 76 U/L and 80 U/L and 168 U/L and 140 U/L and 102 U/L and 222 U/L and 288 U/L and 68 U/L and 190 U/L | ALAT, days of treatment 42 ([2]; group mean, n 12): 143 U/L | ASAT, days of treatment 42 ([2]; group mean, n 12): 136 U/L | ALAT, days of treatment 42 ([2]; individual animals): 68 U/L and 280 U/L and 52 U/L and 50 U/L (2×) and 136 U/L and 58 U/L and 168 U/L and 92 U/L and 66 U/L and 370 U/L and 322 U/L | ASAT, days of treatment 42 ([2]; individual animals): 88 U/L and 132 U/L and 80 U/L and 110 U/L and 140 U/L and 96 U/L and 200 U/L and 106 U/L and 130 U/L and 76 U/L and 174 U/L and 296 U/L | ALAT, days of treatment 56 ([2]; group mean, n 11): 136 U/L | ASAT, days of treatment 56 ([2]; group mean, n 11): 126 U/L | ALAT, days of treatment 56 ([2]; individual animals): 276 U/L and 80 U/L and 48 U/L and 68 U/L and 52 U/L and 54 U/L and 112 U/L and 130 U/L and 534 U/L and 70 U/L and 74 U/L | ASAT, days of treatment 56 ([2]; individual animals): 346 U/L and 122 U/L and 92 U/L and 108 U/L and 60 U/L and 96 U/L and 132 U/L and 112 U/L and 182 U/L and 130 U/L and 164 U/L | ALAT, days of treatment 70 ([2]; group mean, n 11): 413 U/L | ASAT, days of treatment 70 ([2]; group mean, n 11): 281 U/L | ALAT, days of treatment 70 ([2]; individual animals): 364 U/L and 1030 U/L and 326 U/L and 372 U/L and 210 U/L and 342 U/L and 1150 U/L and 358 U/L and 142 U/L (2×) and 104 U/L | ASAT, days of treatment 70 ([2]; individual animals): 258 U/L and 648 U/L and 162 U/L and 206 U/L and 180 U/L and 160 U/L and 524 U/L and 376 U/L and 182 U/L and 198 U/L and 192 U/L | 18S ([3]; individual animal, 20 mg/kg): 12.55 (2×) and 12.84 and 12.43 and 12.35 (2×) and 12.59 and 11.73 and 12.51 and 11.5 and 11.55 | 18S ([3]; mean, n 11): 12.3 | 2^DDct ([3]; individual animal): 1.30 and 1.21 and 0.41 and 0.49 and 0.69 and 1.10 and 0.99 and 1.37 and 0.36 and 0.47 and 2.13 | DDct ([3]; individual animal): −0.38 and −0.27 and 1.30 and 1.04 and 0.54 and −0.14 and 0.01 and −0.45 and 1.46 and 1.10 and −1.09 | Dct ([3]; individual animal): 12.98 and 13.09 and 14.66 and 14.4 and 13.9 and 13.22 and 13.37 and 12.91 and 14.82 and 14.46 and 12.27 | SREBP1C ([3]; individual animal): 25.53 and 25.64 and 27.5 and 26.83 and 26.25 and 25.81 and 25.1 and 25.42 and 26.32 and 26.01 and 24.62 | 2^DDct ([3]; mean, n 11): 0.96 | DDct ([3]; mean, n 11): 0.28 | Dct ([3]; mean, n 11): 13.6 | SREBP1C ([3]; mean, n 11): 25.9 | 2^DDct ([4]; individual animal): 1.62 and 1.20 and 0.21 and 1.19 and 0.20 and 1.29 and 0.79 and 0.67 and 0.34 and 0.23 and 1.77 | ACC1 ([4]; individual animal): 27.74 and 28.17 and 31 and 28.06 and 30.55 and 28.11 and 27.95 and 28.97 and 28.95 and 29.55 and 27.41 | DDct ([4]; individual animal): −0.69 and −0.26 and 2.28 and −0.25 and 2.32 and −0.36 and 0.34 and 0.58 and 1.57 and 2.12 and −0.82 | Dct ([4]; individual animal): 15.19 and 15.62 and 18.16 and 15.63 and 18.2 and 15.52 and 16.22 and 16.46 and 17.45 and 18 and 15.06 | 2^DDct ([4]; mean, n 11): 0.86 | ACC1 ([4]; mean, n 11): 28.8 | DDct ([4]; mean, n 11): 0.62 | Dct ([4]; mean, n 11): 16.5 | 18S ([4]; individual animal, 20 mg/kg): 12.55 (2×) and 12.84 and 12.43 and 12.35 (2×) and 12.59 and 11.73 and 12.51 and 11.5 and 11.55 | 18S ([4]; mean, n 11): 12.3

— patent US10183015B2, “Heterocyclic compounds and methods of use” (Medivation Technologies LLC, priority 2015, dated 2019)
